Measurements published in US20220395500A1, “SMALL MOLECULE ACTIVATORS OF INTERFERON REGULATORY FACTOR 3 AND METHODS OF USE THEREOF” (Neuralexo, Inc., priority 2020, published 2022).
Read-outs that look alike come from different tables or passages of the source.

Experiments:
J774-Dual cytotoxicity = type: cell-based, mouse; conditions: mouse, J774-Dual cells, read-out: J774 cytotox CC50
Protocol: The OTRADI Small Molecule Library of approximately 246,000 diverse compounds (see below for description) was screened using the THP1-Dual based HTS platform described above. All transfer steps in the screen are fully automated, thus reducing variability. Primary screening included a single data point or dose for each molecule. After data normalization was applied for each assay run, “hit” selection was performed on the plates that pass the quality control (QC) criterion. Hits were defined as samples having values above the activity cutoff determined based on noise level of the assay to reduce false positive rates. […] The ratio of ISRE:NFκB activity was also calculated as a selectivity index for prioritizing hit selection. Primary hits underwent secondary screening to determine the 50% effective concentration (EC50) and 50% cytotoxic concentration (CC50) of these agents using an 8-point dose-response curve in the human THP1-Dual cells. Cytotoxicity was measured in the plate using Cell Titer Glo (Promega). Identified candidate compounds were further screened (orthogonal screen) for cross species activity in the validated mouse J774-Dual assay using an 8-point dose-response format to determine EC50 and CC50 values as well as ISRE:NFκB ratios. A general process flow for the experimental design laid out above is depicted at FIG. 12.

[1] = THP1-Dual cytotoxicity (Cell Titer Glo, ATP); type: cell-based, human; conditions: human, THP1-Dual cells, read-out: Thp1 cytotox CC50
Text: FIG. 9C is a CC50 (50% cytotoxic concentration) graph of AV-C dependent IRF activation in THP1-Dual cells, determined with an 8-point dose response experiment. Cell viability was monitored based on quantitation of ATP present, as an indicator of metabolically active cells, where luminescence is proportional to the amount of ATP present, using Cell-Titer Glo (Promega).
The OTRADI Small Molecule Library of approximately 246,000 diverse compounds (see below for description) was screened using the THP1-Dual based HTS platform described above. All transfer steps in the screen are fully automated, thus reducing variability. Primary screening included a single data point or dose for each molecule. After data normalization was applied for each assay run, “hit” selection was performed on the plates that pass the quality control (QC) criterion. Hits were defined as samples having values above the activity cutoff determined based on noise level of the assay to reduce false positive rates. In the pilot study discussed above this activity value was >3σ above the ISRE mean with the added criteria of NFκB activation being lower than […] from the mean to identify IRF selective compounds. The ratio of ISRE:NFκB activity was also calculated as a selectivity index for prioritizing hit selection. Primary hits underwent secondary screening to determine the 50% effective concentration (EC50) and 50% cytotoxic concentration (CC50) of these agents using an 8-point dose-response curve in the human THP1-Dual cells. Cytotoxicity was measured in the plate using Cell Titer Glo (Promega). Identified candidate compounds were further screened (orthogonal screen) for cross species activity in the validated mouse J774-Dual assay using an 8-point dose-response format to determine EC50 and CC50 values as well as ISRE:NFκB ratios. A general process flow for the experimental design laid out above is depicted at FIG. 12.

[2] = test system: IRF-Lucia luciferase reporter (ISRE) in THP1-Dual cells; assay: THP1-Dual IRF-Lucia luciferase reporter assay (ISRE activation); type: cell-based, human; conditions: THP1-Dual; for EC50: Homo sapiens, read-out: THP1 IRF EC50
Protocol: THP1 Dual (InvivoGen) cell suspensions were cultured in RPMI 1640 (Hyclone, Logan, Utah) supplemented with 10% fetal bovine serum (Hyclone), 100 U/mL Normocin (Invivogen), and 50 U/mL PenStrep (Gibco, Dublin, Ireland) between a density of 7·10^5-2·10^6 cells/mL. Every other passage, media was supplemented with 5 U/mL Blasticidin and 100 U/mL Zeocin to maintain the expression constructs. White, flat-bottom 384-well plates (Greiner, Kremsmunster, Austria, 781080) were seeded with 2.5·10^4 cells/well in a total of 50 μL media containing 5 ng/mL phorbolmyristic acid (PMA) using a Matrix WellMate (Thermo Scientific) dispenser. After 48 hours of incubation at 37° C., media was removed using a BioTek ELx405 CW plate washer set to aspirate and wash each well three times with 65 μL 1×PBS. Plates were reloaded with 50 μL media without PMA and treatments added. Lipopolysaccharide in dimethylsulfoxide (DMSO) was transferred to control wells using a HP D300 microdispenser to a final concentration of 313 ng/mL. Compounds from chemical library plates were copied using a Sciclone (Caliper LifeSciences) mounted with a 384-pin transfer tool to obtain a final concentration of 10 μM. After incubation with treatments for 24 hours, 10 μL of supernatant media from each well was transferred into a white, flat-bottom 384-well plate for luminescence readout and a black-walled, clear flat-bottom 384-well plate for absorbance readout.
Specifically, to enable screening of novel chemical entities (NCEs) in a larger screening effort, a robust high-throughput cell-based assay system for primary hit identification of ISRE activators based on the above-mentioned target validation was desired. Human ISRE activity was verified using a THP-1 monocyte line containing the NF-κB-SEAP and IRF-Lucia luciferase dual reporter (THP1-Dual; Invivogen) that features two reporter genes, SEAP (secreted embryonic alkaline phosphatase) and Lucia luciferase, thereby enabling the simultaneous study of the NF-κB and IRF signalling pathways. The Lucia luciferase reporter is under the control of an ISG54 (interferon-stimulated gene) minimal promoter in conjunction with five IFN-stimulated response elements. The SEAP gene is driven by an IFN-β minimal promoter fused to five copies of the NF-κB consensus transcriptional response element and three copies of the c-Rel binding site. Both reporter proteins are readily measurable in the cell culture supernatant when using QUANTI-LUC™ and QUANTI-Blue SEAP detection reagents.
The responsiveness of the human THP-1 Dual cell line was evaluated in an array of assay conditions to obtain sensitive and reproducible results for the activation of IRF and NF-κB reporters. […] All transfer steps are fully automated using high throughput robotic equipment. Briefly, cells are seeded in differentiation medium using a Matrix WellMate fitted with the WellMate Stacker (Thermo Scientific) and incubated at 37° C. with 5% CO2 for 48 h. Following differentiation, cells are washed using a BioTek ELx405 Select CW plate washer and growth medium added with the Matrix WellMate. Programmed control treatments are added to wells using a D300 digital dispenser fitted with T8+ dispense heads (Hewlett Packard) designed to dispense nanoliter quantities of material. Compounds from library plates are added using a pin tool fitted to a Sciclone ALH 3000 Workstation (Caliper Life Sciences) programmed with Maestro v4.4. After treatment, plates are returned to incubators for 24 hours. To measure reporter expression, supernatant is collected using the Sciclone and dispensed into 2 plates: 1) a white 384-well assay plate for Lucia luminescence measurements and 2) a clear-bottom black 384-well assay plate for SEAP absorbance measurements.

[3] = Human Reporter Cell Line, 8-point dose response

| SMILES | CC50 (J774-Dual cytotoxicity; Mouse Reporter Cell Line) | CC50 ([1]; Human Reporter Cell Line) | EC50 [2, 3] | CC50 (J774-Dual cytotoxicity; Mouse Reporter Cell Line J774) | CC50 ([1]; Human Reporter Cell Line THP1) | EC50 ([2]; Human Reporter Cell Line THP1) | activation at 25 µM ([2]; 24 h, Human Reporter Cell Line THP1, @25 uM, read-out: THP1 IRF % activation at peak) |
| --- | --- | --- | --- | --- | --- | --- | --- |
| COC(=O)c1ccc(N2CCN(C(=O)c3cccs3)CC2)cc1 [NA-47] | > 25 µM | > 25 µM | 0.358 µM |  |  |  |  |
| O=C(Nc1ccc(N2CCN(C(=O)c3ccccc3)CC2)cc1)c1ccc(OCc2ccccc2)cc1 [NA-51] | > 25 µM | 11.3 µM | ~2.63 µM |  |  |  |  |
| Cc1ccccc1C(=O)N1CCN(c2ccc(NC(=O)c3ccc(OCc4ccccc4)cc3)cc2)CC1 [NA-52] | > 25 µM | > 25 µM | 1.42 µM |  |  |  |  |
| O=C(Nc1ccc(N2CCN(C(=O)c3ccccc3)CC2)cc1)c1ccc(-c2cccnc2)cc1 [NA-53] | 29.2 µM | 12.3 µM | ~1.48 µM |  |  |  |  |
| NC(=O)c1cc(NC(=O)c2ccccc2)ccc1N1CCOCC1 [NB-4] |  |  |  | > 25 µM | > 25 µM | ~72.1 µM | 5.61% |
| COC(=O)COc1cccc(NC(=O)c2ccc(NC(=O)c3ccco3)cc2)c1 [NC-1] | > 25 µM | 27.4 µM | 2.55 µM |  |  |  |  |
| Cc1ccc(-c2nc3ncccc3o2)cc1NC(=O)c1cc(Br)ccc1Cl [ND-3] |  |  |  | > 25 µM | 30.7 µM | 3.14 µM |  |
| Cc1ccc(C(=O)Nc2ccc3oc(-c4cccnc4)nc3c2)c(Cl)c1 [ND-4] |  |  |  | > 25 µM | 49.3 µM | 3.13 µM |  |
| COc1ccc(C(=O)Nc2cc(-c3nc4cc(C)cc(C)c4o3)ccc2C)cc1[N+](=O)[O-] [ND-8] |  |  |  | > 25 µM | > 25 µM | 2.95 µM |  |
| COc1ccc(C(=O)Nc2nc(-c3cc4ccccc4oc3=O)cs2)nc1 [ND-27] |  |  |  | > 25 µM | > 25 µM | 4.68 µM |  |
| COc1ccc(C(=O)Nc2nc(-c3cc4ccccc4oc3=O)cs2)cn1 [ND-28] |  |  |  | > 25 µM | > 25 µM | ~3.3 µM |  |
| Cc1ccc(-c2nc3ccccc3o2)cc1NC(=O)c1ccc(C)c([N+](=O)[O-])c1 [ND-30] |  |  |  | > 25 µM | > 25 µM | 15.2 µM |  |
| Cc1ccc2nc(-c3ccc(C)c(NC(=O)c4ccc(C)c([N+](=O)[O-])c4)c3)oc2c1 [ND-31] |  |  |  | > 25 µM | 22.3 µM | ~3.14 µM |  |
| Cc1cc2nc(-c3ccc(C)c(NC(=O)c4ccc(N5CCCC5)c([N+](=O)[O-])c4)c3)oc2cc1C [ND-34] |  |  |  | > 25 µM | > 25 µM | ~11.4 µM |  |
| COc1ccc2oc(-c3ccc(C)c(NC(=O)c4ccc(N5CCOCC5)c([N+](=O)[O-])c4)c3)nc2c1 [ND-35] |  |  |  | > 25 µM | 35.7 µM | 2.13 µM |  |
| Cc1cc2nc(-c3ccc(C)c(NC(=O)c4cccc([N+](=O)[O-])c4)c3)oc2cc1C [ND-36] |  |  |  | > 25 µM | > 25 µM | ~8.05 µM |  |
| COc1cc(C(=O)Nc2cc(-c3nc4ccccc4s3)ccc2C)cc(OC)c1OC [ND-37] |  |  |  | > 25 µM | > 25 µM | 11.8 µM |  |
| COc1ccc2nc(NC(=O)c3ccc(OC)c([N+](=O)[O-])c3)sc2c1 [ND-39] |  |  |  | > 25 µM | > 25 µM | 2.49 µM |  |
| COc1ccc(C(=O)Nc2cccc(-c3nc4ncccc4o3)c2)cc1[N+](=O)[O-] [ND-41] |  |  |  | > 25 µM | > 25 µM | 2.04 µM |  |
| COc1ccc(C(=O)Nc2ccc3oc(-c4cccnc4)nc3c2)cc1[N+](=O)[O-] [ND-43] |  |  |  | > 25 µM | 20.3 µM | 5.1 µM |  |
| COc1ccc(C(=O)Nc2cccc(-c3nc4cc(C)c(C)cc4o3)c2)cc1[N+](=O)[O-] [ND-46] |  |  |  | 27.9 µM | 13.1 µM | 3.22 µM |  |
| COc1ccc(C(=O)Nc2cc(-c3nc4cc(C)c(C)cc4o3)ccc2Cl)cc1[N+](=O)[O-] [ND-50] |  |  |  | > 25 µM | > 25 µM | ~11.9 µM |  |
| O=C(Nc1nc2ccc3scnc3c2s1)c1ccc2ccccc2c1 [ND-58] |  |  |  | > 25 µM | > 25 µM | 2.8 µM |  |
| COc1ccc(C(=O)Nc2cc(-c3nc4cc(C)c(C)cc4o3)ccc2C)cc1N [ND-60] |  |  |  | > 25 µM | > 25 µM | ~6.31 µM |  |
| Cc1ccc(-c2nc3ccccc3s2)cc1NC(=O)c1ccc(Cl)c([N+](=O)[O-])c1 [ND-64] |  |  |  | > 25 µM | > 25 µM | 7.27 µM |  |
| COc1c(Cl)cc(C(=O)Nc2cc(-c3nc4cc(C)c(C)cc4o3)ccc2C)cc1Cl [ND-69] |  |  |  | > 25 µM | > 25 µM | ~5.39 µM |  |
